According to patent publication US20240067651A1 (Biohaven Therapeutics Ltd., priority 2019, published 2024):

Assays:
[1] = Caco-2 Permeability Assay; type: in vitro ADME, human; conditions: human
In short: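 Bidirectional transport at 37 °C for 90 min, 10 μM donor concentration, with or without Pgp inhibitor, across 21-day Caco-2 monolayers with TEER >600 […] in HEPES-buffered HBSS, pH 7.4. LC-MS/MS of donor and receiver samples gives Papp, B→A/A→B efflux ratio and mass recovery.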

[2] = Stability in Simulated Intestinal Fluid (SIF); type: in vitro ADME; set-up: key: % parent compound remaining relative to 0-minute sample
In short: (§1)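 LC-MS/MS read-out of intact compound (2 μg/mL final) over 60 minutes at 37° C; gastric medium pH 1.2 with pepsin, intestinal medium pH 6.8 with pancreatin. Half-life from ln(% remaining) against time.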

[3] = Stability in Simulated Gastric Fluid (SGF); type: in vitro ADME; set-up: key: % parent compound remaining relative to 0-minute sample
In short: as §1

Plasma Stability = type: in vitro ADME, human
In short: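 Parent compound quantified by LC-MS/MS after acetonitrile precipitation, reported as percent of control remaining (triplicate). Incubation: 1 hour, 37° C, fresh human plasma, compound at 1 μM.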

[4] = Caco-2, pH 7.4, Caco-2 monolayer
[5] = simulated intestinal fluid, at 1 h
[6] = simulated gastric fluid, at 1 h
[7] = simulated intestinal fluid, after 1 h
[8] = simulated gastric fluid, after 1 h
[9] = simulated intestinal fluid, @ 1 h

SMILES	Papp at 90 min, 10 µM [1, 4]	SIF [2, 5]	SGF [3, 6]	human Plasma stability (Plasma Stability; human plasma, at 1 h)	further results
CC(C)OCCn1c(=S)[nH]c(=O)c2c1ccn2COC(=O)Oc1ccc(F)cc1 [Example 235]	< 0.369 ×10⁻⁶ cm/s	1% remaining at	60% remaining	2% remaining	–
Cc1ccc(OC(=O)OCn2ccc3c2c(=O)[nH]c(=S)n3CCOC(C)C)cc1 [Example 236]	0.59 ×10⁻⁶ cm/s	1% remaining at	53% remaining	1% remaining	–
Cc1cccc(OC(=O)OCn2ccc3c2c(=O)[nH]c(=S)n3CCOC(C)C)c1 [Example 237]	0.723 ×10⁻⁶ cm/s	2% remaining	74% remaining	1% remaining	–
CC(C)OCCn1c(=S)[nH]c(=O)c2c1ccn2COC(=O)Oc1ccccc1F [Example 238]	< 0.339 ×10⁻⁶ cm/s	1% remaining	13% remaining	1% remaining	–
CC(C)OCCn1c(SCOC(=O)N(C)c2ccccc2F)nc(=O)c2[nH]ccc21 [Example 239]	11.7 ×10⁻⁶ cm/s	96% remaining	99% remaining	85% remaining	–
CC(C)OCCn1c(SCOC(=O)N(C)c2ccccc2Cl)nc(=O)c2[nH]ccc21 [Example 240]	15.4 ×10⁻⁶ cm/s	97% remaining	99% remaining	83% remaining	–
COc1ccc(N(C)C(=O)OCSc2nc(=O)c3[nH]ccc3n2CCOC(C)C)cc1 [Example 241]	10.5 ×10⁻⁶ cm/s	97% remaining	57% remaining	100% remaining	–
Cc1ccccc1N(C)C(=O)OCSc1nc(=O)c2[nH]ccc2n1CCOC(C)C [Example 242]	15.6 ×10⁻⁶ cm/s	96% remaining	52% remaining	81% remaining	–
Cc1ccccc1N(C)C(=O)OCSc1nc(=O)c2c(ccn2COC(=O)N(C)c2ccccc2C)n1CCOC(C)C [Example 243]	31.4 ×10⁻⁶ cm/s	99% remaining	88% remaining	99% remaining	–
Cc1ccccc1N(C)C(=O)OCn1c(=O)c2c(ccn2COC(=O)N(C)c2ccccc2C)n(CCOC(C)C)c1=S [Example 244]	7.47 ×10⁻⁶ cm/s	99% remaining	98% remaining	52% remaining	–
Cc1cccc(N(C)C(=O)OCSc2nc(=O)c3[nH]ccc3n2CCOC(C)C)c1 [Example 245]	21.6 ×10⁻⁶ cm/s	99% remaining	99% remaining	63% remaining	–
Cc1cccc(N(C)C(=O)OCSc2nc(=O)c3c(ccn3COC(=O)N(C)c3cccc(C)c3)n2CCOC(C)C)c1 [Example 246]	21.7 ×10⁻⁶ cm/s	99% remaining	98% remaining	99% remaining	–
Cc1cccc(N(C)C(=O)OCn2c(=O)c3c(ccn3COC(=O)N(C)c3cccc(C)c3)n(CCOC(C)C)c2=S)c1 [Example 247]	3.99 ×10⁻⁶ cm/s	81% remaining	64% remaining	31% remaining	–
Cc1ccc(N(C)C(=O)OCSc2nc(=O)c3[nH]ccc3n2CCOC(C)C)cc1 [Example 248]	23.5 ×10⁻⁶ cm/s	98% remaining	99% remaining	96% remaining	–
CC(C)OCCn1c(SCOC(=O)N(C)c2ccccc2Cl)nc(=O)c2c1ccn2COC(=O)N(C)c1ccccc1Cl [Example 249]	28.4 ×10⁻⁶ cm/s	95% remaining	89% remaining	98% remaining	–
CC(C)OCCn1c(=S)[nH]c(=O)c2c1ccn2COC(=O)CCCCCCCCCCCCCCC(=O)O [Example 255, 16-oxo-16-({4-oxo-1-[2-(propan-2-yloxy)ethyl]-2-sulfanylidene-1H,2H,3H,4H,5H-pyrrolo[3,2-d]pyrimidin-5-yl}methoxy)hexadecanoic acid]	–	–	–	–	Papp at 90 min, 10 µM ([1]; Caco-2, pH 7.4, donor 10 μM, 90 minutes, 37° C., direction not given): 2.72 ×10⁻⁶ cm/s; SIF ([2]; % remaining at 1 h, SIF with pancreatin pH 6.8, 2 μg/mL, 37° C.): 2%; SGF ([3]; % remaining at 1 h, SGF with pepsin pH 1.2, 2 μg/mL, 37° C.): 95%; human Plasma stability (Plasma Stability; % remaining at 1 h, human plasma, 1 μM, 37° C.): 76%
CC(C)OCCn1c(=S)[nH]c(=O)c2c1ccn2COC(=O)CCCCCCCCCCCCCCC(=O)OC(C)C [Example 256]	0.25 ×10⁻⁶ cm/s	–	–	–	SIF [2, 7]: 9% remaining; SGF [3, 8]: 99% remaining; human Plasma stability (Plasma Stability; human plasma, after 1 h): 88% remaining
CC(C)OCCn1c(=S)[nH]c(=O)c2c1ccn2COC(=O)CCCCCCCCCCC(=O)O [Example 261]	11.7 ×10⁻⁶ cm/s	–	–	–	SIF [2, 7]: 2% remaining; SGF [3, 8]: 99% remaining; human Plasma stability (Plasma Stability; human plasma, after 1 h): 94% remaining
CC(C)OCCn1c(=S)[nH]c(=O)c2c1ccn2COC(=O)CCCCCCCCCCC(=O)OC(C)C [Example 262]	< 0.214 ×10⁻⁶ cm/s	–	–	–	SIF [2, 7]: 2% remaining; SGF [3, 8]: 92% remaining; human Plasma stability (Plasma Stability; human plasma, after 1 h): 41% remaining
CC(C)OCCn1c(=S)n(COC(=O)CNC(=O)OC(C)(C)C)c(=O)c2c1ccn2COC(=O)CNC(=O)OC(C)(C)C [Example 283]	5.78 ×10⁻⁶ cm/s	–	–	–	SIF [2, 9]: 1% @ 1 h; SGF ([3]; simulated gastric fluid, @ 1 h): 82% @ 1 h; human Plasma stability (Plasma Stability; human plasma, @ 1 h): 26% @ 1 h
CC(C)OCCn1c(=S)[nH]c(=O)c2c1ccn2COC(=O)CN [Example 284]	1.55 ×10⁻⁶ cm/s	–	–	–	SIF [2, 9]: 6% @ 1 h; SGF ([3]; simulated gastric fluid, @ 1 h): 100% @ 1 h; human Plasma stability (Plasma Stability; human plasma, @ 1 h): 0% @ 1 h
CC(C)OCCn1c(=S)n(COC(=O)[C@H](C)N)c(=O)c2c1ccn2COC(=O)[C@H](C)N.O=C(O)C(F)(F)F.O=C(O)C(F)(F)F [Example 289, bis(trifluoroacetic acid) [3-({[(2S)-2-aminopropanoyl]oxy}methyl)-4-oxo-1-[2-(propan-2-yloxy)ethyl]-2-sulfanylidene-1H,2H,3H,4H,5H-pyrrolo[3,2-d]pyrimidin-5-yl]methyl (2S)-2-aminopropanoate]	–	–	–	–	Papp at 90 min, 10 µM ([1]; Caco-2, pH 7.4): < 0.366 ×10⁻⁶ cm/s; SIF ([2]; % remaining @ 1 h): 97% @ 1 h; SGF ([3]; % remaining @ 1 h): 100% @ 1 h; human Plasma stability (Plasma Stability; % remaining @ 1 h): 39% @ 1 h
CC(C)OCCn1c(=S)[nH]c(=O)c2c1ccn2COC(=O)[C@@H](C)N.O=C(O)C(F)(F)F [Example 292, trifluoroacetic acid {4-oxo-1-[2-(propan-2-yloxy)ethyl]-2-sulfanylidene-1H,2H,3H,4H,5H-pyrrolo[3,2-d]pyrimidin-5-yl}methyl (2R)-2-aminopropanoate]	–	–	–	–	Papp at 90 min, 10 µM ([1]; Caco-2, pH 7.4): < 1.06 ×10⁻⁶ cm/s; SIF ([2]; % remaining @ 1 h): 7% @ 1 h; SGF ([3]; % remaining @ 1 h): 99% @ 1 h; human Plasma stability (Plasma Stability; % remaining @ 1 h): 20% @ 1 h
CC(C)OCCn1c(=S)n(COC(=O)[C@@H](C)N)c(=O)c2c1ccn2COC(=O)[C@@H](C)N.O=C(O)C(F)(F)F.O=C(O)C(F)(F)F [Example 293, bis(trifluoroacetic acid) [3-({[(2R)-2-aminopropanoyl]oxy}methyl)-4-oxo-1-[2-(propan-2-yloxy)ethyl]-2-sulfanylidene-1H,2H,3H,4H,5H-pyrrolo[3,2-d]pyrimidin-5-yl]methyl (2R)-2-aminopropanoate]	–	–	–	–	Papp at 90 min, 10 µM ([1]; Caco-2, pH 7.4): < 1.06 ×10⁻⁶ cm/s; SIF ([2]; % remaining @ 1 h): 29% @ 1 h; SGF ([3]; % remaining @ 1 h): 100% @ 1 h; human Plasma stability (Plasma Stability; % remaining @ 1 h): 25% @ 1 h
CC(C)OCCn1c(=S)[nH]c(=O)c2c1ccn2COC(=O)[C@@H](NC(=O)OC(C)(C)C)C(C)C [Example 294, {4-oxo-1-[2-(propan-2-yloxy)ethyl]-2-sulfanylidene-1H,2H,3H,4H,5H-pyrrolo[3,2-d]pyrimidin-5-yl}methyl (2S)-2-{[(tert-butoxy)carbonyl]amino}-3-methylbutanoate]	–	–	–	–	Papp at 90 min, 10 µM ([1]; Caco-2, pH 7.4): 26.8 ×10⁻⁶ cm/s; SIF ([2]; % remaining @ 1 h): 3% @ 1 h; SGF ([3]; % remaining @ 1 h): 98% @ 1 h; human Plasma stability (Plasma Stability; % remaining @ 1 h): 98% @ 1 h
